Measurements: paper doi:10.1101/2020.01.28.923938v1 (biorxiv, 2020)

Target: CYP2D6 (Homo sapiens, UniProt P10635)
Assay: in situ kinetics of dextrorphan formation in HLM, ADE-OPI-MS
Type: biochemical

CYP2D6, sequence (P10635 whole entry): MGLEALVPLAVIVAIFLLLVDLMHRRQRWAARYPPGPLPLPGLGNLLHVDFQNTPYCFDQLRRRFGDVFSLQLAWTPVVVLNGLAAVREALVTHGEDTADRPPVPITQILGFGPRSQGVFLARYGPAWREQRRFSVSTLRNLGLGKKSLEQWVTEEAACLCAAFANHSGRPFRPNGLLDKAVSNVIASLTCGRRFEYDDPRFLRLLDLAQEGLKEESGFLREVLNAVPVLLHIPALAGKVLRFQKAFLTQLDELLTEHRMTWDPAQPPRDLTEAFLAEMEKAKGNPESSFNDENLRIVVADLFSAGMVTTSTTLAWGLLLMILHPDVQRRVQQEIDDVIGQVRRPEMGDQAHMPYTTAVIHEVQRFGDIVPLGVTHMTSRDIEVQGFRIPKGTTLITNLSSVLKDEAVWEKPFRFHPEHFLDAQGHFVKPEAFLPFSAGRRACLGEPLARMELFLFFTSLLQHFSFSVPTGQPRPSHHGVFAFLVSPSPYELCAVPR

SMILES: COc1ccc2c(c1)[C@]13CCCC[C@@H]1[C@H](C2)N(C)CC3 [dextromethorphan]
- Km: 3.79 µM
